The record followed here is patent US20240150301A1, “METHODS OF MODULATING ANDROGEN RECEPTOR CONDENSATES” (ETERN BIOPHARMA (SHANGHAI) CO., LTD., priority 2021, published 2024).

The structures appear in SMILES notation. Entries after “also recorded” stand apart in the source; their conditions may differ.

What all share (type): cell-based
The target in experiment [1] is T1, AR V7 (Homo sapiens, UniProt P10275).
T1 sequence (P10275 1-644 isoform P10275-3): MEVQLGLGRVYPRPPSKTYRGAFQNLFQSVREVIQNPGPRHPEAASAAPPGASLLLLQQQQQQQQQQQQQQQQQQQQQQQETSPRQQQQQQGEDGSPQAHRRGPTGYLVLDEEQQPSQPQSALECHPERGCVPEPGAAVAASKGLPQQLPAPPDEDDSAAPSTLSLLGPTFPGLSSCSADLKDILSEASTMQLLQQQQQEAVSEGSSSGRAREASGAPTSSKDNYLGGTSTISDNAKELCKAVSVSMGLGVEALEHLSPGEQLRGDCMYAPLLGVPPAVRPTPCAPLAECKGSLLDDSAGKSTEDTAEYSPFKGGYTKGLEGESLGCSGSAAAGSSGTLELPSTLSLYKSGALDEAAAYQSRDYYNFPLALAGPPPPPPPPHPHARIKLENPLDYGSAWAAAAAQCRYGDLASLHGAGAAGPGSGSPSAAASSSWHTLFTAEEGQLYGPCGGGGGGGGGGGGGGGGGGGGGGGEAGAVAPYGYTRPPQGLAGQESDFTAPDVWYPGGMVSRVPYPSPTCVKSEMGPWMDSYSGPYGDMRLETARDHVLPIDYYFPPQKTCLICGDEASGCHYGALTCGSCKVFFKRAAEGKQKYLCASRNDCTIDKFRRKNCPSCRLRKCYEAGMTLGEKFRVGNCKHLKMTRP
Description: Live-cell imaging of AR puncta (LLPS) in LNCaP cells, AR V7-mEGFP. Also on record: expressed in transfected cells; host or cells: LNCaP. Conditions: 10 μM compound, no DHT. The procedure: Cells were grown on 24-well glass bottom plate (Cellvis, P24-1.5H-N) and images were taken with the Leica TCS SP8 confocal microscopy system using a 100× oil objective (NA=1.4). Cells were imaged on a heated stage (37° C.) and supplemented with warmed (37° C.) humidified air. The microscope was enclosed in an incubation chamber heated to 37° C.
For compounds treatment assay, LNCaP cells were transfected with an expression vector for AR (AR or AR F877L/T878A)-mEGFP using steroid hormone-free and phenol red-free RPMI media for 24 hours before compound treatment. After 10 μM compounds treatment for 3 hour, LNCaP cells were added with 1 nM DHT. For ligand-independent AR V7-mEGFP expressing LNCaP cells, starvation step is skipped and compounds were added 12 hours after transfection. The final concentration of DMSO was 0.1%. Cells were subjected to microscopic observation every 30 mins after DHT/compounds were added.
Data was analyzed by images collected from 100 representative fields in each group. The spots quantification was performed based on the area and intensity of the spots through green (AR-mEGFP) channel. Fluorescent images were processed and assembled into figures using LAS X (Leica) and Fiji.
After 10 μM compounds treatment for 3 hour, LNCaP cells were added with 1 nM DHT. […]

Experiment [2] addresses T1, AR V7. The experiment is described as follows: ARE-luciferase reporter assay in 22Rv1 cells (endogenous AR-V7). Also on record: 22Rv1(Cobioer) prostate cancer cell line, which expresses endogenous AR-V7; host or cells: 22Rv1. Conditions: 22Rv1, hormone-starved, 24 h; read-out: 22Rv1 ARE-luc IC50. On the procedure:
The ARE-luciferase reporter plasmid contains functional AREs (androgen response elements) to which AR binds in response to androgen to induce luciferase activity. LNCaP (Cobioer) cells were transiently transfected with the ARE-luciferase reporter in charcoal stripped FBS/phenol red-free RPMI medium prior to treatment for 24 hours. Then DMSO or test compounds with serial diluted concentrations were added one hour prior to the addition of DHT(1 nM). After 24 h of incubation with DHT, cells were lysed and luciferase activity was assayed using the ONE-Glo™ Luciferase Assay System (Promega) and measured using EnVision Multimode Plate Reader, according to manufacturer's instructions. Values were normalized to cell viability determined by CellTiter-Glo® Luminescent Cell Viability Assay Kit (Promega). […] GraphPad Prism graphing software was used to calculate IC50 values.
To evaluate the transcriptional activity of AR-V7, HEK293T(Cobioer) cells were transiently cotransfected with an expression vector for AR-V7 and the ARE-luciferase reporter in hormone-starved conditions. For 22Rv1(Cobioer) prostate cancer cell line, which expresses endogenous AR-V7, ARE-luciferase reporter was transiently transfected in hormone-starved conditions. 24 h after transfection, DMSO or test compounds with serial diluted concentrations were added for additional 24 h incubation. Reporter activity was detected and normalized by cell viability as described above. Treatments were normalized to DMSO control activity, and IC50 values were further determined via GraphPad Prism graphing software.

For another experiment, the system named is LNCaP cells. The experiment is described as follows: Cell proliferation assay (CellTiter-Glo), LNCaP. Conditions: Homo sapiens, 96 h, 0.2 nM DHT, 4 days, read-out: LNCaP IC50 AR-positive (cell proliferation). On the procedure: (§1) To evaluate the effect of exemplary compounds on proliferation of AR/AR-V7-dependent prostate cancer cells, cell viability assay was performed in LNCaP (AR-positive), 22Rv1 (AR-positive; AR-V7 positive), VCaP (AR-positive; AR-V7 positive), and DU145 (AR-negative) cells, respectively.
(§2) LNCaP cells were seeded in charcoal stripped FBS/phenol red-free RPMI medium in 96-well plates for 24 h before pretreating for 1 h with test compounds prior to addition of 0.2 nM DHT for 4 days. 22Rv1 or VCaP cells were cultured in charcoal stripped FBS/phenol red-free RPMI medium for 24 h before addition of test compounds for 4 days. DU145 cells were seeded in complete medium for 24 h before addition of test compounds for 4 days. Cell proliferation was measured with CellTiter-Glo® Luminescent Cell Viability Assay (Promega). In LNCaP cells, DHT-dependent cell growth is calculated by measuring the difference between vehicle control (DMSO) cells treated with or without 0.2 nM DHT. The IC50 values were determined using the four parameter fit via GraphPad Prism graphing software.

The next experiment deals with VCaP cells. Description: Cell proliferation assay (CellTiter-Glo), VCaP. Conditions: Homo sapiens, 96 h, 4 days, read-out: VCaP IC50 AR-positive, AR-V7 positive (cell proliferation). On the procedure: as §1, §2

Regarding `CC(C)(c1ccc(C#Cc2cnc(NS(C)(=O)=O)nc2)cc1)c1cc(Cl)c(OCCCl)c(C#N)c1` [Compound 60, N-(5-((4-(2-(3-chloro-4-(2-chloroethoxy)-5-cyanophenyl)propan-2-yl)phenyl)ethynyl)pyrimidin-2-yl)methanesulfonamide], the “puncta formation / LLPS of AR V7” value on AR V7 [1] is “could suppress the phase separation; also recorded: abolished the puncta formation; also recorded: significantly impaired the LLPS”.
Take `CC(C)(c1ccc(OCc2ccnc(N=S3(=O)CCNCC3)n2)cc1)c1cc(Cl)c(OCCCl)c(C#N)c1` [Compound 6, 3-chloro-2-(2-chloroethoxy)-5-(2-(4-((2-((1-oxido-1λ^6-thiomorpholin-1-ylidene)amino)pyrimidin-4-yl)methoxy)phenyl)propan-2-yl)benzonitrile]: the IC50 on AR V7 [2] turned out to be 8.6 µM; in the experiment with LNCaP cells it was 0.86 µM.
Regarding `CC(C)(c1ccc(OCc2ccnc(NS(C)(=O)=O)n2)cc1)c1cc(Cl)c(OCCCl)c(C#N)c1` [Compound AA, N-(4-((4-(2-(3-chloro-4-(2-chloroethoxy)-5-cyanophenyl)propan-2-yl)phenoxy)methyl)pyrimidin-2-yl) methane sulfonamide, reference compound], the results for the IC50 on AR V7 [2], with VCaP cells and with LNCaP cells were over 20 µM, over 20 µM and 7.01 µM, respectively.
